Common to all, as to assay type: cell-based
Test [1] has as its system HER2-overexpressing human breast cancer cell line SK-BR-3 cells. Put plainly: Cytostatic activity against HER2-expressing cell line SK-BR-3 (CellTiter-Glo). The settings on record: 3-day culture, read-out: SK-BR-3 cell growth inhibitory activity IC50 value. The protocol:
HER2-overexpressing human breast cancer cell line SK-BR-3 cells were suspended in McCoy's 5a medium (manufactured by Life Technologies Corp.) containing 10% fetal bovine serum. The cell suspension was inoculated to each well of a 384-well flat-bottom microplate and cultured at 37° C. for 1 day in an incubator containing 5% carbon dioxide. The compound of the present invention was dissolved in DMSO, and the test compound was diluted into 500 times as high concentration as the final concentration using DMSO. The solution of the test compound in DMSO was diluted with the medium used in the suspension of each cell line, and this solution was added at a final concentration of DMSO of 0.2% to each well of the cell culture plate, followed by further culture at 37° C. for 3 days in an incubator containing 5% carbon dioxide.

Test [2] relates to HER2-overexpressing human stomach cancer cell line NCI-N87 cells. Put plainly: Cytostatic activity against HER2-expressing cell line NCI-N87 (CellTiter-Glo). From the text:
HER2-overexpressing human stomach cancer cell line NCI-N87 cells were suspended in RPMI1640 medium (manufactured by Life Technologies Corp.) containing 10% fetal bovine serum. Meanwhile, EGFR-overexpressing highly activated human epithelioid cancer cell line A431 cells were suspended in DMEM, high glucose medium (manufactured by Life Technologies Corp.) containing 10% fetal bovine serum. Subsequently, each cell suspension was inoculated to each well of a 384-well flat-bottom microplate and cultured at 37° C. for 1 day in an incubator containing 5% carbon dioxide. […] The solution of the test compound in DMSO was diluted with the medium used in the suspension of each cell line, and this solution was added at a final concentration of DMSO of 0.2% to each well of the cell culture plate, followed by further culture at 37° C. for 3 days in an incubator containing 5% carbon dioxide.

The subject of test [3] is EGFR-overexpressing highly activated human epithelioid cancer cell line A431 cells. Put plainly: Cytostatic activity against EGFR-expressing cell line A431 (CellTiter-Glo). The following applies: 3-day culture, read-out: A431 cell growth inhibitory activity IC50 value. From the text: Test Example 2 Measurement Test (In Vitro) of Cytostatic Activity Against HER2-Expressing Cell Line (NCI-N87) and EGFR-Expressing Cell Line (A431) and Comparison of Selectivity Thereof
HER2-overexpressing human stomach cancer cell line NCI-N87 cells were suspended in RPMI1640 medium (manufactured by Life Technologies Corp.) containing 10% fetal bovine serum. Meanwhile, EGFR-overexpressing highly activated human epithelioid cancer cell line A431 cells were suspended in DMEM, high glucose medium (manufactured by Life Technologies Corp.) containing 10% fetal bovine serum. Subsequently, each cell suspension was inoculated to each well of a 384-well flat-bottom microplate and cultured at 37° C. for 1 day in an incubator containing 5% carbon dioxide. The compound of the present invention or Comparative Example compound 1 was dissolved in DMSO, and the test compound was diluted into a concentration of 500 times the final concentration using DMSO. The solution of the test compound in DMSO was diluted with the medium used in the suspension of each cell line, and this solution was added at a final concentration of DMSO of 0.2% to each well of the cell culture plate, followed by further culture at 37° C. for 3 days in an incubator containing 5% carbon dioxide.
Rate of growth inhibition (%)=(C−T)/(C)×100 T: Luminescence intensity of a well supplemented with the test compound C: Luminescence intensity of a well not supplemented with the test compound

Where [4] appears, read: Homo sapiens, 72 h, 3-day culture, NCI-N87, read-out: NCI-N87 cell growth inhibitory activity IC50 value.

Where two headings read alike, the source gives them in different places.

On to `C=CC(=O)N1CCC[C@@H](n2nc(C(=O)Nc3nc4cc(F)ccc4o3)c3c(N)ncnc32)C1` [Comparative Example compound 1, (R)-1-(1-acryloylpiperidin-3-yl)-4-amino-N-(5-fluorobenzo[d]oxazol-2-yl)-1H-pyrazolo[3,4-d]pyrimidine-3-carboxamide, reference compound], for which the IC50 worked out at 1.13 µM in test [1] (Homo sapiens, 72 h) and 2380 nM in test [2] (setting [4]). In addition, the “cytostatic effect in evaluation using HER2-overexpressing cell lines” value in test [2] (HER2-overexpressing cell lines, qualitative) is “very low cytostatic effect”.
On to “(R)-1-(1-acryloylpiperidin-3-yl)-4-amino-N-(4-(2-methoxy(methyl)amino-2-oxoethyl)-2-methylphenyl)-1H-pyrazolo[3,4-d]pyrimidine-3-carboxamide [Example 72]”, for which the IC50 in test [1] was found to be 0.016 µM; in test [2] (3-day culture, NCI-N87, read-out: NCI-N87 cell growth inhibitory activity IC50 value) it was 5 nM; in test [3], 1.17 µM.
Turning to `C=CC(=O)N1CCC[C@@H](n2nc(C(=O)Nc3cc(C)c(CC(=O)N(C)C)cc3C)c3c(N)ncnc32)C1` [Example 39, (R)-1-(1-acryloylpiperidin-3-yl)-4-amino-N-(4-(2-(dimethylamino)-2-oxoethyl)-2,5-dimethylphenyl)-1H-pyrazolo[3,4-d]pyrimidine-3-carboxamide], the IC50 in test [1] (Homo sapiens, 72 h) was 0.024 µM; in test [2] (setting [4]), 12 nM; in test [3] (Homo sapiens, A-431, 72 h), 1.8 µM.
`C=CC(=O)N1CCC[C@@H](n2nc(C(=O)Nc3ccc(CC(=O)N(C)C)c(Cl)c3)c3c(N)ncnc32)C1` [Example 8, (R)-1-(1-acryloylpiperidin-3-yl)-4-amino-N-(3-chloro-4-(2-(dimethylamino)-2-oxoethyl)phenyl)-1H-pyrazolo[3,4-d]pyrimidine-3-carboxamide]: the IC50 in test [3] (Homo sapiens, A-431, 72 h) worked out at 0.956 µM.
As for `C=CC(=O)N1CCC[C@@H](n2nc(C(=O)Nc3ccc(CC(=O)N(C)C)c4c3OCO4)c3c(N)ncnc32)C1` [Example 53, (R)-1-(1-acryloylpiperidin-3-yl)-4-amino-N-(7-(2-(dimethylamino)-2-oxoethyl)benzo[d][1,3]dioxol-4-yl)-1H-pyrazolo[3,4-d]pyrimidine-3-carboxamide], the IC50 in test [2] (setting [4]) stood at 11 nM; in test [3] (Homo sapiens, A-431, 72 h), 1.67 µM.
`C=CC(=O)N1CCC[C@@H](n2nc(C(=O)Nc3ccc(OC(=O)N(C)C)cc3OC)c3c(N)ncnc32)C1` [Example 36, (R)-4-(1-(1-acryloylpiperidin-3-yl)-4-amino-1H-pyrazolo[3,4-d]pyrimidine-3-carboxamido)-3-methoxyphenyl dimethylcarbamate]: the IC50 in test [2] (Homo sapiens, NCI-N87, 72 h, read-out: NCI-N87 cell growth inhibitory activity IC50 value (nM)) amounted to 8 nM; in test [3] (Homo sapiens, A-431, 72 h), 2.61 µM.
For `C=CC(=O)N1CC[C@@H](n2nc(C(=O)Nc3ccc(CC(=O)N(C)C)c(F)c3C)c3c(N)ncnc32)C1` [Example 56, (R)-1-(1-acryloylpyrrolidin-3-yl)-4-amino-N-(4-(2-(dimethylamino)-2-oxoethyl)-3-fluoro-2-methylphenyl)-1H-pyrazolo[3,4-d]pyrimidine-3-carboxamide], the IC50 in test [3] (Homo sapiens, A-431, 72 h) was 2.51 µM.
Regarding “(R,E)-4-(4-amino-1-(1-(4-dimethylamino)but-2-enoyl)piperidin-3-yl)-1H-pyrazolo[3,4-d]pyrimidine-3-carboxamido)naphthalen-1-yl dimethyl carbamate [Example 66]”, in test [3], the IC50 was 6.04 µM.

The values are drawn from patent publication US10329300B2, “Pyrazolo[3,4-d]pyrimidine compound or salt thereof” (TAIHO PHARMACEUTICAL CO., LTD., priority 2015, dated 2019).
